Source: patent US12098129B2, “Pharmaceutical composition for treating fibrosis” (LTT BIO-PHARMA CO., LTD., priority 2018, dated 2024)
“Also recorded” adds a separate entry of the source.

Assays:
[1] = test system: BLM pulmonary injury model mouse; experiment: BLM pulmonary injury model: H&E / Masson's trichrome staining, Ashcroft score, hydroxyproline; type: in vivo; settings: for BLM-dependent pulmonary injuries: once a day day 10 to day 18, BLM 1 mg/kg, pirfenidone 200 mg/kg, nintedanib 30 mg/kg, tolperisone 5 mg/kg
[2] = test system: LL29 cells (IPF patient-derived lung fibroblast cells); experiment: MTT cell viability of lung fibroblast cells compared with alveolar epithelial cells; type: cell-based, human; settings: for fibroblast cell-selective decrease in cell viability / cell death (LL29 versus A549): LL29 versus A549 cells, survived cell number; for difference in IC50 (concentration required to decrease the cell viability by 50%) between LL29 and A549 cells: screening of existing approved drugs, MTT, 24 hours, IC50 for LL29 lower than for A549
Description: (§1) A549 cells (human alveolar epithelial cells) and LL29 cells (IPF patient-derived lung fibroblast cells) were cultured under conditions of 37° C. and 5% CO2 by using, respectively, Dulbecco's modified Eagle's medium containing 10% FBS and Ham's F-12K (Kaighn's) medium containing 15% FBS.
(§2) The number of living cells was measured by an MTT method or trypan blue staining using Countess (trademark) Automated Cell Counter (Invitrogen, Carlsbad, CA). For evaluation of cell death, LDH activity in the medium was measured in accordance with the protocol of the assay kit.
For a specific method, IPF patient-derived lung fibroblast cells (LL29 cells) and human alveolar epithelial cells (A549 cells) were treated with existing approved drugs, and the cell viability 24 hours later was evaluated by an MTT method.
As with (b-1) above, IPF patient-derived lung fibroblast cells (LL29 cells) and human alveolar epithelial cells (A549 cells) were treated with existing approved drugs, and the cell viability 24 hours later was evaluated by an MTT method.

[3] = test system: BLM pulmonary injury model mouse; experiment: BLM pulmonary injury model: lung function (elastance, FVC) with ventilator for mice; type: in vivo
Description: (§3) On day 1, BLM was administered via the airway to a normally reared male ICR mouse to prepare a BLM pulmonary injury model mouse.
The lung function was measured in accordance with previous literature by using a computer-controlled ventilator for small animals (FlexiVent; SCIREQ, Montreal, Canada). A metal tube (with an outer diameter of 1.27 mm and an inner diameter of 0.84 mm) was inserted by 8 mm into a mouse anesthetized with chloral hydrate (500 mg/kg), and the mouse was caused to breathe mechanically at a rate of 150 breaths/min with a tidal volume of 8.7 ml/kg and a positive end-expiratory pressure ventilation of 2-3 cm H2O.
The total respiratory elastance and the tissue elastance were measured by the snap shot and the forced oscillation technique, respectively. The forced vital capacity was measured in accordance with Chest 142, 1011-1019 (2012) by using the computer-controlled ventilator for small animals and a negative pressure reservoir (SCIREQ, Montreal, Canada). All the data was analyzed by using FlexiVent software (version 5.3; SCIREQ, Montreal, Canada).

LL29 cells [4] = experiment: TGF-β1-dependent activation of lung fibroblast cells: α-SMA and Col1a1 mRNA by real-time RT-PCR; type: cell-based, human
Description: Total RNA of cells was extracted by using RNeasy kit (Qiagen). 2.5 μg of total RNA was subjected to reverse transcription reaction in accordance with the protocol from Takara Bio Inc by using a first-strand cDNA synthesis kit (Takara Bio Inc). The synthesized cDNA was analyzed with a CFX96 (trademark) real time system by using SsoFast EvaGreen Supermix. For equalizing the total RNA amounts in the reactions, a glyceraldehyde-3-phosphate dehydrogenase (GAPDH) gene was used as an internal standard.
as §1
(§4) As described above, myofibroblast cells played an important role on pulmonary fibrosis in patients with IPF and bleomycin-induced pulmonary fibrosis. Thus, with attention focused on myofibroblast cells, the effects of idebenone and COQ10 were examined. […] Thus, the effects of idebenone and CoQ10 on TGF-β1-dependent activation of lung fibroblast cells (differentiation into myofibroblast cells) were compared. LL29 cells were treated with idebenone or CoQ10, and then treated with TGF-β1, and the amount of collagen in the medium was measured. […] Next, the effect of idebenone was examined by using the levels of α-SMA and mRNA of collagen as indices.

LL29 cells [5] = experiment: TGF-β1-dependent activation of lung fibroblast cells: amount of collagen in the medium; type: cell-based, human; settings: LL29 cells treated with drug, then TGF-β1
Description: as §1, §4

[6] = test system: BLM pulmonary injury model mouse; experiment: BLM pulmonary injury model: α-SMA immunostaining of the lung (myofibroblast cells); type: in vivo; settings: FIGS. 7A and 7B
Description: as §3
A method for immunostaining with α-SMA was carried out by blocking the section with 2.5% goat serum for 10 minutes, and then performing a primary antibody treatment (against α-SMA, 1:100 dilution). At 12 hours later, the section was incubated with Alexa Fluor 594 goat anti-rabbit immunoglobulin G and DAPI for 2 hours. Thereafter, the section was encapsulated by using VECTA SHIELD. The section was photographed by using a microscope (Olympus DP71).
An α-SMA-positive region was quantitatively determined by using Image J software (National Institutes of Health, Bethesda, MD) The number of 8-OHdG-positive cells was quantitatively determined by using Definiens Tissue Studio (trademark) software (CTC Life Science Corporation, Tokyo, Japan).

[7] = test system: A549 cells (human alveolar epithelial cells); experiment: LDH activity in the medium (cell death), A549 cells; type: cell-based; settings: 150 μM
Description: as §1, §2
(§5) More minute doses than the doses used during screening test were applied to examine the cell death inducing action of idebenone and to simultaneously conduct a screening reproducibility experiment.

LL29 cells [8] = experiment: LDH activity in the medium (cell death), LL29 cells; type: cell-based, human; settings: 150 μM
Description: as §1, §2, §5

LL29 cells [9] = experiment: Number of living and dead cells by trypan blue staining, LL29 cells; type: cell-based, human
Description: as §1, §2
(§6) Thus, the present inventors measured the number of living cells and the number of dead cells with the aid of trypan blue staining.

A549 cells = experiment: Number of living and dead cells by trypan blue staining, A549 cells; type: cell-based, human
Description: as §1, §2, §6

[10] = airway administration, day 10 to day 19 (FIG. 10D)
[11] = oral, once a day day 10 to day 18, pirfenidone 200 mg/kg, nintedanib 30 mg/kg, tolperisone 5 mg/kg
[12] = airway administration, comparison idebenone / CoQ10 (FIGS. 5A to 5C)
[13] = airway administration, pre-administration (FIG. 3D)
[14] = oral, 15 or 50 mg/kg once a day day 10 to day 18

COC(=O)c1ccc2c(c1)NC(=O)/C2=C(\Nc1ccc(N(C)C(=O)CN2CCN(C)CC2)cc1)c1ccccc1 [nintedanib]
BLM-dependent pulmonary injuries ([1]; oral, day 20): hardly suppressed BLM-dependent pulmonary injuries | fibroblast cell-selective decrease in cell viability / cell death (LL29 versus A549) [2]: did not induce fibroblast cell-selective cell death; also recorded: hardly induced fibroblast cell-selective cell death

C[C@H](CN1CCCC1)C(=O)c1ccc(C(F)(F)F)cc1 [lanperisone]
fibroblast cell-selective decrease in cell viability / cell death (LL29 versus A549) [2]: induced fibroblast cell-selective cell death

Clc1ccc2nsnc2c1NC1=NCCN1 [tizanidine]
fibroblast cell-selective decrease in cell viability / cell death (LL29 versus A549) [2]: did not exhibit such an effect

Cc1ccc(C(=O)C(C)CN2CCCCC2)cc1 (centres unmarked) [tolperisone]
BLM-dependent decrease in FVC [3, 10]: suppressed such a decrease | BLM-dependent increase in total respiratory system elastance and tissue elastance [3, 10]: tended to suppress such an increase | BLM-dependent decrease in FVC ([3]; intraperitoneal administration): suppressed such a decrease | BLM-dependent increase in total respiratory system elastance and tissue elastance ([3]; intraperitoneal administration): suppressed such an increase | BLM-dependent decrease in FVC ([3]; oral administration (FIG. 11D)): suppressed such a decrease | BLM-dependent increase in total respiratory system elastance and tissue elastance ([3]; oral administration (FIG. 11D)): suppressed such an increase | BLM-dependent decrease in FVC [3, 11]: improved such changes | BLM-dependent increase in total respiratory system elastance and tissue elastance [3, 11]: improved such changes | BLM-dependent increase in amount of hydroxyproline ([1]; airway administration, day 10 to day 19 (FIG. 10C)): hardly suppressed such an increase | BLM-dependent pulmonary injuries and collagen accumulation ([1]; airway administration, day 10 to day 19 (FIGS. 10A and 10B)): slightly suppressed such injuries and collagen accumulation | BLM-dependent increase in amount of hydroxyproline ([1]; intraperitoneal administration): markedly suppressed such an increase | BLM-dependent pulmonary injuries and collagen accumulation ([1]; intraperitoneal administration): suppressed such injuries and collagen accumulation | BLM-dependent increase in amount of hydroxyproline ([1]; oral administration (FIG. 11C)): markedly suppressed such an increase | BLM-dependent pulmonary injuries and collagen accumulation ([1]; oral administration (FIGS. 11A and 11B)): suppressed such injuries and collagen accumulation | BLM-dependent pulmonary injuries ([1]; oral, day 20): markedly improved BLM pulmonary injuries | TGF-β1-induced expression of α-SMA and Col1a1 mRNA (LL29 cells [4]): suppressed such induction | fibroblast cell-selective decrease in cell viability / cell death (LL29 versus A549) [2]: decreased the cell viability of LL29 cells (lung fibroblast cells) at a concentration lower than a concentration at which the cell viability of A549 cells (alveolar epithelial cells) decreased | difference in IC50 (concentration required to decrease the cell viability by 50%) between LL29 and A549 cells [2]: particularly marked difference in IC50 value

COC1=C(OC)C(=O)C(C/C=C(\C)CC/C=C(\C)CC/C=C(\C)CC/C=C(\C)CC/C=C(\C)CC/C=C(\C)CC/C=C(\C)CC/C=C(\C)CC/C=C(\C)CCC=C(C)C)=C(C)C1=O [CoQ10]
pulmonary injury and fibrosing by bleomycin [1, 12]: suppressed | TGF-β1-induced increase in amount of collagen in the medium (LL29 cells [5]): did not suppress such an increase | TGF-β1-induced expression of α-SMA and Col1a1 mRNA (LL29 cells [4]): did not suppress such induction | bleomycin-induced increase in number of α-SMA-positive cells (myofibroblast cells) of the lung [6]: did not exhibit such a suppressing effect

Cc1ccc(=O)n(-c2ccccc2)c1 [pirfenidone]
BLM-dependent pulmonary injuries ([1]; oral, day 20): hardly suppressed BLM-dependent pulmonary injuries | fibroblast cell-selective decrease in cell viability / cell death (LL29 versus A549) [2]: did not induce fibroblast cell-selective cell death; also recorded: hardly induced fibroblast cell-selective cell death

CCc1ccc(C(=O)C(C)CN2CCCC2)cc1 (centres unmarked) [inaperisone]
fibroblast cell-selective decrease in cell viability / cell death (LL29 versus A549) [2]: induced fibroblast cell-selective cell death

COC1=C(OC)C(=O)C(CCCCCCCCCCO)=C(C)C1=O [idebenone]
BLM-dependent decrease in FVC [3, 13]: tended to suppress such a decrease | BLM-dependent increase in total respiratory system elastance and tissue elastance [3, 13]: suppressed such an increase | BLM-dependent decrease in respiratory function ([3]; therapeutic: airway administration started 10 days after BLM (FIG. 4D)): markedly suppressed a BLM-dependent decrease in respiratory function | LDH released into the medium [7]: little LDH was released | effect of drug alone on pulmonary fibrosing and the respiratory function ([1]; airway administration, 18.8 mg/kg, alone (without BLM)): did not affect pulmonary fibrosing and the respiratory function | pulmonary injury and fibrosing by bleomycin [1, 12]: suppressed | BLM-dependent increase in Ashcroft score ([1]; airway administration, pre-administration (FIG. 3B)): markedly suppressed such an increase | BLM-dependent increase in amount of hydroxyproline ([1]; airway administration, pre-administration (FIG. 3C)): markedly suppressed such an increase | BLM-dependent pulmonary injuries and collagen accumulation ([1]; airway administration, pre-administration day 1 to day 7 (FIG. 3A)): markedly suppressed such injuries and collagen accumulation | pulmonary injury and fibrosing by bleomycin ([1]; therapeutic effects, comparison idebenone / CoQ10 (FIGS. 6A to 6C)): suppressed | pulmonary injury and fibrosing 20 days after administration of BLM ([1]; therapeutic: airway administration started 10 days after BLM (FIGS. 4A to 4C)): markedly suppressed pulmonary injury and fibrosing | TGF-β1-induced increase in amount of collagen in the medium (LL29 cells [5]): suppressed such an increase | TGF-β1-induced expression of α-SMA and Col1a1 mRNA (LL29 cells [4]): suppressed such induction | bleomycin-induced increase in number of α-SMA-positive cells (myofibroblast cells) of the lung [6]: markedly suppressed such an increase | LDH released into the medium (LL29 cells [8]): LDH was released into the medium | concentration at which induction of cell death started (LL29 cells [9]): 175 µM | concentration at which suppression of proliferation started (LL29 cells [9]): 75 µM | concentration at which suppression of cell proliferation started (A549 cells): 175 µM | induction of cell death (A549 cells; examined concentrations): did not induce cell death at examined concentrations | fibroblast cell-selective decrease in cell viability / cell death (LL29 versus A549) [2]: decreased the cell viability of LL29 cells (lung fibroblast cells) at a concentration lower than a concentration at which the cell viability of A549 cells (alveolar epithelial cells) decreased | difference in IC50 (concentration required to decrease the cell viability by 50%) between LL29 and A549 cells [2]: particularly marked difference in value of IC50

CCc1ccc(C(=O)C(C)CN2CCCCC2)cc1 (centres unmarked) [eperisone]
BLM-dependent decrease in FVC ([3]; intraperitoneal administration): suppressed | BLM-dependent increase in total respiratory system elastance and tissue elastance ([3]; intraperitoneal administration): suppressed | BLM-dependent decrease in FVC [3, 14]: improved such changes in a concentration-dependent manner | BLM-dependent increase in total respiratory system elastance and tissue elastance [3, 14]: improved such changes in a concentration-dependent manner | BLM-dependent increase in amount of hydroxyproline ([1]; intraperitoneal administration): tendency of suppression | BLM-dependent pulmonary injuries and collagen accumulation ([1]; intraperitoneal administration): suppressed | BLM-dependent pulmonary injuries and collagen accumulation ([1]; oral, 15 or 50 mg/kg once a day day 10 to day 18, BLM 1 mg/kg, day 20): suppressed BLM-dependent pulmonary injuries and collagen accumulation in a concentration-dependent manner | TGF-β1-induced expression of α-SMA and Col1a1 mRNA (LL29 cells [4]): suppressed such induction | fibroblast cell-selective decrease in cell viability / cell death (LL29 versus A549) [2]: decreased the cell viability of LL29 cells at a concentration lower than a concentration at which the cell viability of A549 cells decreased
